Measured values reported in PMC11899342, “Novel Triazeneindole Antibiotics: Synthesis and Hit-to-Lead Optimization” (International Journal of Molecular Sciences, 2025).
In brackets after ≈: the same amount, converted by molar mass. Where two headings read alike, the source gives them in different places.

What was measured:
MRSA clinical isolates = test: MIC by broth microdilution against multidrug-resistant MRSA clinical isolates; assay type: cell-based, Staphylococcus aureus; details: for MIC Range Against 8 MRSA Strains: 8 multidrug-resistant MRSA clinical isolates, tested 0.125-1 mg/L; for MIC: Staphylococcus aureus, MRSA, read-out: MIC against 8 MRSA strains
Protocol: Clinical MRSA isolates with multidrug resistance were obtained from the collection of the Research Institute of Antimicrobial Chemotherapy, Smolensk State Medical Academy.
The MICs were determined using a broth microdilution method according to [42]. Briefly, serial dilutions of the tested compounds in 50 µL of Mueller Hinton broth (BD) were prepared in 96-well microplates. The antibiotics vancomycin and linezolid (Sigma-Aldrich, St. Louis, MO, USA) were used as a positive control. Bacterial suspensions of the tested MRSA strains were prepared in the Mueller Hinton broth (BD) with a concentration 1 × 10^6 CFU/mL, and then 50 µL aliquots were added to the prepared microplates. The final concentrations of the antibiotics in the wells were 1, 0.5, 0.25, and 0.125 mg/L, for the tested compounds, and 2 mg/L for vancomycin and linezolid. Negative control (lack of bacterial cells) and growth control (lack of compound) wells were included in all plates. The microplates were incubated at 37 °C for 18 h. The growth was assessed visually after incubation, and the MIC was assumed as the lowest compound concentration at which a noticeable growth of the microorganisms was inhibited (no visible growth). All experiments were conducted in triplicate.

[1] = system: human embryonic fibroblasts (HEFs); test: MTT cytotoxicity on human embryonic fibroblasts; assay type: cell-based; details: Homo sapiens, Fibroblast, 24 h, ND = non-toxic in tested concentrations (up to 50 mg/L)
Protocol: (§1) The primary screening of 22 substances was performed on human embryonic fibroblasts (HEFs). […] The HepG2 cell line was obtained from the American Type Culture Collection (ATCC cat. # HB-8065). The primary HEF cells (normal human embryonic fibroblasts) were derived from human embryonic stem cells. The cells were cultured in DMEM/F12 (1:1) medium containing 10% fetal bovine serum (Invitrogen, Carlsbad, CA, USA) at 37 °C and 5% CO2, according to standard mammalian tissue culture protocols and sterile technique. […] The incubation time with the substance was 24 h for all substances and cell lines. Cell detachment by trypsin, centrifugation, and counting in a hemocytometer were performed 16 h before the addition of the substance. For correct counting of the HepG2 cells, the cell suspension was passed through a syringe needle to get rid of cell aggregates. The cells were placed in the wells of a 96-well plate. The number of cells was selected according to the properties of the cell line and the final optical density in the experiment. Fibroblasts and hepatocytes were used in the amount of 10 thousand cells per well in 100 μL of DMEM/F12 medium supplemented with 10% fetal bovine serum. The substances were added to 100 µL of medium in the wells so that the final concentrations were 50, 25, 12.5, 6.25, 3.125, and 1.62 mg/L. The final well volume was 200 µL. The medium containing fetal bovine serum, without added substances, was used as a negative control. After 24 h, excessive amounts of medium were discarded. A total of 30 µL of MTT solution (5 mg/mL in PBS) was added to each well. After the precipitation of formazan crystals (3 h incubation), they were dissolved using 100 μL of dimethyl sulfoxide. The optical density (OD) was measured at 570 nm using a microplate reader (Eppendorf). For every condition, the cell viabilities were assessed in at least three independent experiments for every cell culture. Cell survival was calculated using the following formula:(OD of treated cells − OD blank)/(OD of control cells − OD blank) × 100%, where OD blank represents the OD values in wells without cells but with the addition of the MTT and DMSO solutions. The results were presented in the form of cytotoxicity curves, and the graphs were also plotted in a Microsoft Excel program; the calculation of the IC50 half-maximal inhibition concentration values was performed in a GraphPad Prism 6.0 (GraphPad Software Inc., San Diego, CA, USA) program, based on the equations of the cytotoxicity curves.

[2] = Solubility in water by HPLC; assay type: physicochemical; details: water, kinetic from dmso stock
Protocol: The solubility of the compounds in water was assessed using HPLC analysis. Two 1.0 mg portions of the test compounds were dissolved in 10 μL of dimethyl sulfoxide; 1.0 mL of acetonitrile was added to one sample (standard), and 1.0 mL of water was added to the second sample (tested sample). Both vials were mixed in a shaker for 5 min, then centrifuged at 10,000 rpm for 5 min. The supernatants were collected and analyzed using Agilent 1290 Infinity (Agilent Technologies, Santa Clara, CA, USA) with a YMC-Triart C18 50 × 2.0 mm, 1.9 μm column. The concentration of the test compound in water was determined by comparing the peak areas of the standard (concentration 1.0 mg/mL) and the tested sample.

[3] = system: HepG2 human liver carcinoma cells; test: MTT cytotoxicity (hepatotoxicity) on HepG2; assay type: cell-based; details: Homo sapiens, HepG2, 24 h
Protocol: as §1

MRSA = test: Selectivity index (average IC50 on eukaryotic cells / average MIC on MRSA); assay type: cell-based, Staphylococcus aureus; details: average IC50 on eukaryotic cells divided by average MIC on MRSA
Protocol: The selectivity index was calculated for each compound as the average IC50 on eukaryotic cells divided by the average MIC on MRSA (Table 2).

[4] = read-out: Solubility in water, mass concentration
[5] = read-out: Solubility in water, molar concentration

CCOC(=O)c1[nH]c2ccccc2c1/N=N/N(C)Cc1ccccc1 [BX-SI003, Ethyl (E)-3-(3-benzyl-3-methyltriaz-1-en-1-yl)-1H-indole-2-carboxylate]
MIC Range Against 8 MRSA Strains (MRSA clinical isolates): 1 µg/mL (≈ 2.97 µM)
IC50 [1]: 3 µg/mL (≈ 8.92 µM)
solubility at 5 min [2, 4]: 29.6 µg/mL
solubility at 5 min [2, 5]: 90 µM

CCOC(=O)c1[nH]c2ccccc2c1/N=N/N1CCCN(C)CC1 [BX-SI005, Ethyl (E)-3-((4-methyl-1,4-diazepan-1-yl)diazenyl)-1H-indole-2-carboxylate]
MIC Range Against 8 MRSA Strains (MRSA clinical isolates): 1 µg/mL (≈ 3.04 µM)
IC50 [1]: 12 µg/mL (≈ 36.4 µM)
solubility at 5 min [2, 4]: 70.2 µg/mL
solubility at 5 min [2, 5]: 210 µM

CCOC(=O)c1[nH]c2ccccc2c1/N=N/N(C)CCN(C)C [BX-SI010, Ethyl (E)-3-(3-(2-(dimethylamino)ethyl)-3-methyltriaz-1-en-1-yl)-1H-indole-2-carboxylate]
MIC Range Against 8 MRSA Strains (MRSA clinical isolates): 1 µg/mL (≈ 3.15 µM)
IC50 [1]: 19 µg/mL (≈ 59.9 µM)
solubility at 5 min [2, 4]: 475 µg/mL
solubility at 5 min [2, 5]: 1490 µM

CCOC(=O)c1[nH]c2ccccc2c1/N=N/N1CCC(CCOC)CC1 [BX-SI016, Ethyl (E)-3-((4-(2-methoxyethyl)piperidin-1-yl)diazenyl)-1H-indole-2-carboxylate]
MIC Range Against 8 MRSA Strains (MRSA clinical isolates): >1 µg/mL
IC50 [1]: 34 µg/mL (≈ 94.9 µM)

CCOC(=O)c1[nH]c2cc(F)ccc2c1/N=N/N1CCN(C)CC1 [BX-SI035, Ethyl ester ethyl (E)-6-fluoro-3-((4-methylpiperazin-1-yl)diazenyl)-1H-indole-2-carboxylate]
IC50 [3]: 21 µg/mL (≈ 63 µM)
MIC Range Against 8 MRSA Strains (MRSA clinical isolates): 0.5 µg/mL (≈ 1.5 µM)
MIC (MRSA clinical isolates; Figure 6, MRSA strain 2): 0.5 µg/mL (≈ 1.5 µM)
MIC (MRSA clinical isolates; Figure 6, MRSA strain 7): 0.5 µg/mL (≈ 1.5 µM)
MIC (MRSA clinical isolates; Figure 6, MRSA strain 8): 0.5 µg/mL (≈ 1.5 µM)
MIC (MRSA clinical isolates; Figure 6, MRSA strain 9): 0.5 µg/mL (≈ 1.5 µM)
MIC (MRSA clinical isolates; Figure 6, MRSA strain 13): 0.5 µg/mL (≈ 1.5 µM)
MIC (MRSA clinical isolates; Figure 6, MRSA strain 21): 0.5 µg/mL (≈ 1.5 µM)
MIC (MRSA clinical isolates; Figure 6, MRSA strain 48): 0.5 µg/mL (≈ 1.5 µM)
MIC (MRSA clinical isolates; Figure 6, MRSA strain 50): 0.5 µg/mL (≈ 1.5 µM)
Selectivity Index (MRSA): 41
IC50 [1]: 20 µg/mL (≈ 60 µM)
solubility at 5 min [2, 4]: 11.7 µg/mL
solubility at 5 min [2, 5]: 350 µM

CCOC(=O)c1[nH]c2cc(F)ccc2c1/N=N/N1CCCN(C)CC1 [BX-SI039, Ethyl (E)-6-fluoro-3-((4-methyl-1,4-diazepan-1-yl)diazenyl)-1H-indole-2-carboxylate]
IC50 [3]: 16 µg/mL (≈ 46.1 µM)
MIC Range Against 8 MRSA Strains (MRSA clinical isolates): 0.5 to 1 µg/mL
MIC (MRSA clinical isolates; Figure 6, MRSA strain 2): 1 µg/mL (≈ 2.88 µM)
MIC (MRSA clinical isolates; Figure 6, MRSA strain 7): 1 µg/mL (≈ 2.88 µM)
MIC (MRSA clinical isolates; Figure 6, MRSA strain 8): 1 µg/mL (≈ 2.88 µM)
MIC (MRSA clinical isolates; Figure 6, MRSA strain 9): 1 µg/mL (≈ 2.88 µM)
MIC (MRSA clinical isolates; Figure 6, MRSA strain 13): 1 µg/mL (≈ 2.88 µM)
MIC (MRSA clinical isolates; Figure 6, MRSA strain 21): 0.5 µg/mL (≈ 1.44 µM)
MIC (MRSA clinical isolates; Figure 6, MRSA strain 48): 1 µg/mL (≈ 2.88 µM)
MIC (MRSA clinical isolates; Figure 6, MRSA strain 50): 0.5 µg/mL (≈ 1.44 µM)
Selectivity Index (MRSA): 20
IC50 [1]: 19 µg/mL (≈ 54.7 µM)
solubility at 5 min [2, 4]: 33.1 µg/mL
solubility at 5 min [2, 5]: 90 µM

CCOC(=O)c1[nH]c2cc(F)ccc2c1/N=N/N1CCOCC1 [BX-SI040, Ethyl (E)-6-fluoro-3-(morpholinodiazenyl)-1H-indole-2-carboxylate]
MIC Range Against 8 MRSA Strains (MRSA clinical isolates): 1 µg/mL (≈ 3.12 µM)
IC50 [1]: 12 µg/mL (≈ 37.5 µM)
solubility at 5 min [2, 4]: 4.48 µg/mL
solubility at 5 min [2, 5]: 14 µM
